In patent publication US9918939B2, “Formulation of Syk inhibitors” (Gilead Connecticut, Inc., priority 2013, dated 2018):
Counter-ions that a name gives are not always drawn.

Assay: Stability studies of dry granulation tablet (HPLC, XRPD)
Assay type: physicochemical
Conditions: intragranular blend, milled granules, final blend of Formulation 1 (FIG. 4)

Compound: c1cn2cc(-c3ccc4cn[nH]c4c3)nc(Nc3ccc(N4CCOCC4)cc3)c2n1 [bis-mesylate salt of Formula IA]
- form change by XRPD during processing: no form change
